The test system of data set [1] is HBV. The data set is described as follows: Anti-HBV activity, HepG2.117 cell line, intracellular HBV DNA by real-time PCR. Conditions: Hepatitis B virus, read-out: HBV-AVE-HepG2.117 EC50. The format is cell-based, Hepatitis B virus. The method, then:
The anti HBV activity was measured using the HepG2.117 cell line, a stable, inducibly HBV producing cell line, which replicates HBV in the absence of doxicycline (Tet-off system). The HepG2 cell line is available from ATCC® under number HB-8065. Transfection of the HepG2 cell line can be as described in Sun and Nassal 2006 Journal of Hepatology 45 (2006) 636-645 “Stable HepG2- and Huh7-based human hepatoma cell lines for efficient regulated expression of infectious hepatitis B virus”.
For the antiviral assay, HBV replication was induced, followed by a treatment with serially diluted compound in 96-well plates. After 3 days of treatment, the antiviral activity was determined by, quantification of intracellular HBV DNA using real-time PCR and an HBV specific primer set and probe.

Data set [2] is described as follows: Cytotoxicity, ATPlite Luminescence Assay. The class given is cell-based, human. Conditions: human, mean value, cells incubated for 3 days, viability by ATPlite, read-out: TOX-HepC2.117 CC50. As to the method: Cytotoxicity of the compounds was tested using HepG2 or HepG2.117 cells, incubated for 3 days in the presence of compounds. The viability of the cells was assessed using the PERKIN ELMER ATPlite Luminescence Assay System.”
A general note: Cellular ATP, detected with luciferase, serves as a proxy for viable cell number.

[3] abbreviates: 72 h, mean value, HepG2.117 cells, 3 days of treatment, intracellular HBV DNA.

Drawing on patent US20220242879A1, “FUSED HETEROCYCLE DERIVATIVES” (Janssen Sciences Ireland Unlimited Company, priority 2019, published 2022), this text covers EC50 and CC50 for 23 compounds.

Read-outs that look alike come from different tables or passages of the source.

For the compound `Cn1cnc2c1CCCn1nc3c(c1-2)CN(C(=O)c1ccc(Cl)c(Cl)c1)CC3` [Compound 45, (3,4-Dichlorophenyl)(3-methyl-4,5,6,9,10,12-hexahydroimidazo[4,5-c]pyrido[4′,3′:3,4]pyrazolo-[1,5-a]azepin-11(3H)-yl)methanone], in data set [1] (setting [3]), the EC50 (as a rule, the concentration needed to bring the measured effect to its halfway point) turned out to be 4970 nM. In addition, the CC50 (in general, the concentration at which the toxic effect on the cells reaches its halfway point) at 3 days in data set [2] (HepG2.117 cells) was > 50000 nM.

On to `O=C(c1ccc(Cl)c(Cl)c1)N1CCc2nn3c(c2C1)-c1n[nH]cc1CC3` [Compound 6, (3,4-Dichlorophenyl)(2,4,5,8,9,11-hexahydro-10H-pyrazolo[3,4-c]pyrazolo[1,5-a:4,3-c′]-dipyridin-10-yl)methanone], for which the concentration giving a half-maximal response (EC50) in data set [1] (setting [3]) came to 208 nM. In addition, the CC50 at 3 days in data set [2] (HepG2.117 cells) is > 50000 nM.

`O=C(NCC(F)(F)F)C1Cc2conc2-c2c3c(nn2C1)CCN(C(=O)c1ccc(Cl)c(Cl)c1)C3` (stereo not shown) [Compound 35, 11-(3,4-Dichlorobenzoyl)-N-(2,2,2-trifluoroethyl)-5,6,9,10,11,12-hexahydro-4H-[1,2]oxazolo-[3,4-c]pyrido[4′,3′:3,4]pyrazolo[1,5-a]azepine-5-carboxamide]: the EC50 in data set [1] (setting [3]) was found to be 395 nM. Moreover, the CC50 at 3 days in data set [2] (HepG2.117 cells) was > 50000 nM.

As for `CNC(=O)[C@H]1Cc2conc2-c2c3c(nn2C1)CCN(C(=O)c1ccc(Cl)c(Cl)c1)[C@@H]3C` (single isomer, unassigned) [Compound 50], the EC50 in data set [1] (setting [3]) came out at 8430 nM. Besides, the CC50 at 3 days in data set [2] (HepG2.117 cells) is > 50000 nM.

On to `O=C(c1ccc(Cl)c(Cl)c1)N1CCc2nn3c(c2C1)-c1ncoc1CCC3` [Compound 40, (3,4-Dichlorophenyl)(4,5,6,9,10,12-hexahydro-11H-[1,3]oxazolo[4,5-c]pyrido-[4′,3′:3,4]pyrazolo[1,5-a]azepin-11-yl)methanone], for which the EC50 in data set [1] (setting [3]) is 499 nM. The CC50 at 3 days in data set [2] (HepG2.117 cells) was > 50000 nM.

Turning to `O=C(c1ccc(Cl)c(Cl)c1)N1CCc2nn3c(c2C1)-c1nocc1CC3` [Compound 1, (3,4-Dichlorophenyl)(4,5,8,9-tetrahydro[1,2]oxazolo[3,4-c]pyrazolo[1,5-a:4,3-c′]dipyridin-10(11H)-yl)methanone], in data set [1] (setting [3]), the half-maximal effective concentration (EC50) came out at 1130 nM. Moreover, the CC50 at 3 days in data set [2] (HepG2.117 cells) was > 50000 nM.

Consider `CN(C)C(=O)C1Cc2conc2-c2c3c(nn2C1)CCN(C(=O)c1ccc(Cl)c(Cl)c1)C3` (stereo not shown) [Compound 36, 11-(3,4-Dichlorobenzoyl)-N,N-dimethyl-5,6,9,10,11,12-hexahydro-4H-[1,2]oxazolo[3,4-c]pyrido[4′,3′:3,4]pyrazolo[1,5-a]azepine-5-carboxamide], for which the EC50 in data set [1] (setting [3]) was 686 nM. The CC50 at 3 days in data set [2] (HepG2.117 cells) is > 50000 nM.

For `O=C(c1ccc(Cl)c(Cl)c1)N1CCc2nn3c(c2C1)-c1oncc1CCC3` [Compound 39, (3,4-Dichlorophenyl)(4,5,6,9,10,12-hexahydro-11H-[1,2]oxazolo[5,4-c]pyrido[4′,3′:3,4]-pyrazolo[1,5-a]azepin-11-yl)methanone], the EC50 in data set [1] (setting [3]) came out at 1340 nM. Moreover, the CC50 at 3 days in data set [2] (HepG2.117 cells) came out at 43600 nM.

For `Cc1[nH]nc2c1CCn1nc3c(c1-2)CN(C(=O)c1ccc(Cl)c(Cl)c1)CC3` [Compound 7, (3,4-Dichlorophenyl)(3-methyl-2,4,5,8,9,11-hexahydro-10H-pyrazolo[3,4-c]pyrazolo-[1,5-a:4,3-c′]dipyridin-10-yl)methanone], the EC50 in data set [1] (setting [3]) was 1290 nM. Besides, the CC50 at 3 days in data set [2] (HepG2.117 cells) is > 50000 nM.

As to `O=C(c1ccc(Cl)c(Cl)c1)N1CCc2nn3c(c2C1)-c1n[nH]cc1CCC3` [Compound 41, (3,4-Dichlorophenyl)(2,5,6,9,10,12-hexahydropyrazolo[3,4-c]pyrido[4′,3′,3,4]pyrazolo[1,5-a]-azepin-11(4H)-yl)methanone], the EC50 in data set [1] (setting [3]) worked out at 749 nM. In addition, in data set [2] (HepG2.117 cells), the CC50 at 3 days came out at 25600 nM.

`Cc1onc2c1CCn1nc3c(c1-2)CN(C(=O)c1ccc(Cl)c(Cl)c1)CC3` [Compound 2]: in data set [1] (setting [3]), the EC50 was found to be 921 nM. Also, in data set [2] (HepG2.117 cells), the CC50 at 3 days turned out to be 41900 nM.

As for `O=C(c1ccc(Cl)c(Cl)c1)N1CCc2nn3c(c2C1)-c1noc(-c2ccccc2)c1CC3` [Compound 4, (3,4-Dichlorophenyl)(3-phenyl-4,5,8,9-tetrahydro[1,2]oxazolo[3,4-c]pyrazolo-[1,5-a:4,3-c′]dipyridin-10(11H)-yl)methanone], the concentration giving a half-maximal response (EC50) in data set [1] (setting [3]) is > 10000 nM. In addition, in data set [2] (HepG2.117 cells), the CC50 at 3 days was > 10000 nM.

As for `O=C(c1ccc(Cl)c(Cl)c1)N1CCc2nn3c(c2C1)-c1nocc1CC(O)(CO)C3` (stereo not shown) [Compound 18, (3,4-Dichlorophenyl)[5-hydroxy-5-(hydroxymethyl)-5,6,9,10-tetrahydro-4H-[1,2]oxazolo-[3,4-c]pyrido[4′,3′:3,4]pyrazolo[1,5-a]azepin-11(12H)-yl]methanone], in data set [1] (setting [3]), the EC50 was 1050 nM. Also, in data set [2] (HepG2.117 cells), the CC50 at 3 days was > 50000 nM.

Take `CNC(=O)C1(O)Cc2conc2-c2c3c(nn2C1)CCN(C(=O)c1ccc(Cl)c(Cl)c1)C3` (stereo not shown) [Compound 22, 11-(3,4-Dichlorobenzoyl)-S-hydroxy-N-methyl-5,6,9,10,11,12-hexahydro-4H-[1,2]oxazolo-[3,4-c]pyrido[4′,3′:3,4]pyrazolo[1,5-a]azepine-5-carboxamide]: the EC50 in data set [1] (setting [3]) came to 130 nM. Moreover, the CC50 at 3 days in data set [2] (HepG2.117 cells) is > 50000 nM.

For the compound `O=C(Nc1ccccc1)C1Cc2conc2-c2c3c(nn2C1)CCN(C(=O)c1ccc(Cl)c(Cl)c1)C3` (stereo not shown) [Compound 37, 11-(3,4-Dichlorobenzoyl)-N-phenyl-5,6,9,10,11,12-hexahydro-4H-[1,2]oxazolo[3,4-c]-pyrido[4′,3′:3,4]pyrazolo[1,5-a]azepine-5-carboxamide], the EC50 in data set [1] (HepG2.117, 72 h) worked out at 343 nM. Also, the CC50 at 3 days in data set [2] is > 50000 nM.

On to `O=C(c1ccc(Cl)c(Cl)c1)N1CCc2nn3c(c2C1)-c1nocc1CC(O)C3` (stereo not shown) [Compound 19, (3,4-Dichlorophenyl)(5-hydroxy-5,6,9,10-tetrahydro-4H-isoxazolo[3,4-c]pyrido[4′,3′:3,4]pyrazolo[1,5-a]azepin-11(12H)-yl)methanone], for which the EC50 in data set [1] (setting [3]) turned out to be 263 nM. In addition, the CC50 at 3 days in data set [2] (HepG2.117 cells) is > 50000 nM.

Regarding `Cn1ncc2c1-c1c3c(nn1CC2)CCN(C(=O)c1ccc(Cl)c(Cl)c1)C3` [Compound 9, (3,4-Dichlorophenyl)(1-methyl-1,4,5,8,9,11-hexahydro-10H-pyrazolo[3,4-c]pyrazolo-[1,5-a:4,3-c′]dipyridin-10-yl)methanone], the EC50 in data set [1] (setting [3]) was > 50000 nM. In data set [2] (HepG2.117 cells), the CC50 at 3 days is > 50000 nM.

Regarding `Nc1onc2c1CC(O)(CO)Cn1nc3c(c1-2)CN(C(=O)c1ccc(Cl)c(Cl)c1)CC3` (stereo not shown) [Compound 24, [3-Amino-5-hydroxy-5-(hydroxymethyl)-5,6,9,10-tetrahydro-4H-[1,2]oxazolo[3,4-c]pyrido-[4′,3′:3,4]pyrazolo[1,5-a]azepin-11(12H)-yl](3,4-dichlorophenyl)methanone], the EC50 in data set [1] (setting [3]) came out at 1590 nM. In addition, in data set [2] (HepG2.117 cells), the CC50 at 3 days was > 50000 nM.

As to `CCc1onc2c1CCCn1nc3c(c1-2)CN(C(=O)c1ccc(Cl)c(Cl)c1)CC3` [Compound 13, (3,4-Dichlorophenyl)(3-ethyl-5,6,9,10-tetrahydro-4H-[1,2]oxazolo[3,4-c]-pyrido[4′,3′:3,4]pyrazolo[1,5-a]azepin-11(12H)-yl)methanone], the EC50 in data set [1] (setting [3]) was found to be 2940 nM. Moreover, the CC50 at 3 days in data set [2] (HepG2.117 cells) was determined as 26600 nM.

Take `O=C(c1ccc(Cl)c(Cl)c1)N1CCc2nn3c(c2C1)-c1nc[nH]c1CCC3` [Compound 44, (3,4-Dichlorophenyl)(4,5,6,9,10,12-hexahydroimidazo[4,5-c]pyrido[4′,3′:3,4]pyrazolo[1,5-a]azepin-11(3H)-yl)methanone]: the EC50 in data set [1] (setting [3]) was found to be 574 nM. For the same compound, in data set [2] (HepG2.117 cells), the 50% cytotoxic concentration (CC50) at 3 days is > 50000 nM.

`CNC(=O)[C@H]1Cc2conc2-c2c3c(nn2C1)CCN(C(=O)c1ccc(Cl)c(Cl)c1)C3` (single isomer, unassigned) [Compound 31, (5*S)-11-(3,4-Dichlorobenzoyl)-N-methyl-5,6,9,10,11,12-hexahydro-4H-[1,2]oxazolo[3,4-c]pyrido[4′,3′:3,4]pyrazolo[1,5-a]azepine-5-carboxamide]: the EC50 in data set [1] (setting [3]) stood at 47 nM. For the same compound, the cytotoxic concentration (CC50) at 3 days in data set [2] (HepG2.117 cells) was > 50000 nM.

Turning to `C[C@@H]1Cc2nn3c(c2CN1C(=O)c1ccc(Cl)c(Cl)c1)-c1nocc1CC3` [Compound 5, (3,4-Dichlorophenyl)[(9R)-9-methyl-4,5,8,9-tetrahydro[1,2]oxazolo[3,4-c]-pyrazolo[1,5-a:4,3-c′]dipyridin-10(11H)-yl]methanone], the EC50 in data set [1] (setting [3]) is 279 nM. Further, the CC50 at 3 days in data set [2] (HepG2.117 cells) is > 50000 nM.

As to `C=C1Cc2c(noc2N)-c2c3c(nn2C1)CCN(C(=O)c1ccc(Cl)c(Cl)c1)C3` [Compound 23, (3-Amino-5-methylidene-5,6,9,10-tetrahydro-4H-[1,2]oxazolo[3,4-c]pyrido[4′,3′:3,4]pyrazolo-[1,5-a]azepin-11(12H)-yl)(3,4-dichlorophenyl)methanone], the EC50 in data set [1] (setting [3]) was 172 nM. Also, in data set [2] (HepG2.117 cells), the CC50 at 3 days is 21200 nM.
